Consider 8 substances from patent publication US20250255961A1, “METHODS TO STIMULATE IMMUNE RESPONSES TO MUTANT RAS USING NUCLEATED CELLS” (STEMCELL TECHNOLOGIES CANADA INC., priority 2020, published 2025).

Experiment [1] concerns K-Ras G12D responder T cells. Briefly: IFN-γ ELISPOT: peptide-loaded HLA-A*11+ human PBMCs co-cultured with K-Ras G12D responder T cells. The format is cell-based, transgenic mice. The conditions noted are these: for IFN-γ expressing by K-Ras-G12D responder T cells upon co-culture: Example 1, FIG. 1, vehicle control DMSO, overnight 37° C.; for IFN-γ secretion by K-Ras-G12D responder T cells upon co-culture: Example 3, FIG. 3, HLA-A*11+ human PBMCs (donor 339) SQZ-loaded with 100 μM SLP; for IFN-γ expressing responder T cells upon co-culture: PBMCs incubated with 100 μM SLP at room temperature without SQZ (Endo-G12D). Here is the method: (§1) Human PBMCs from HLA-A*11^+ donor were prepared at a density of 10×10^6/mL, and SQZ-processed at room temperature through a constriction of 4.5 μm width, 10 μm length and 70 μm depth at 60 psi with 100 μM of the respective K-Ras G12D synthetic long peptide (either G12D^1-16, G12D^2-19, G12D^2-22, G12D^2-29) or with vehicle control (DMSO) in RPMI medium. Following SQZ-processing, the SQZ-loaded PBMCs were centrifuged, and the supernatant was discarded. The cells were subsequently washed once in R10 medium (RPMI+10% FCS+1% Pen/Strep), then washed twice in CTL medium (supplemented with 1% glutamine), before resuspension in fresh CTL medium (supplemented with 1% glutamine).
2×10^5 SQZ-loaded PBMCs were then placed in co-culture with 5×10^4 K-Ras G12D responder T cells (generated in transgenic mice) in an IFN-γ ELISPOT plate. As a positive control, 10 μM K-Ras G12D^7-16 peptide containing the minimal epitope was added directly to untreated PBMCs and responder cells in the ELISPOT plate (peptide spike). The plate was incubated overnight at 37° C. and then developed/quantified according to manufacturer's instructions.
as §1, with “and SQZ processed” for “and SQZ-processed”, “K-Ras” for “K-Ras G12D”, “(either wild type K-Ras^1-16 or K-Ras-G12D^1-16)” for “(either G12D^1-16, G12D^2-19, G12D^2-22, G12D^2-29)”, “SQZ-loaded PMBCs” for “SQZ-loaded PBMCs”, “glutamine). […]” for “glutamine).”
as §1, with “donor (donor 339)” for “donor”, “10×10^6/mL, SQZ processed” for “10×10^6/mL, and SQZ-processed”, “K-Ras” for “K-Ras G12D”, “(either wild type K-Ras^2-22 or K-Ras G12D^2-22)” for “(either G12D^1-16, G12D^2-19, G12D^2-22, G12D^2-29)”, “SQZ-loaded PMBCs” for “SQZ-loaded PBMCs”, “glutamine). […]” for “glutamine).”
2×10^5 of either the SQZ-loaded PBMCs (SQZ-G12D) or SLP-incubated PBMCs (Endo-G12D), or an equal volume of the fluid phase solution (FF-G12D) were then placed in co-culture with 5×10^4 K-Ras G12D responder T cells (generated in transgenic mice) in an IFN—Y ELISPOT plate. As a positive control, 10 μM K-Ras G12D^7-16 peptide containing the minimal epitope was added directly to untreated PBMCs and responder cells in the ELISPOT plate (spike). 10 μM wild type K-Ras^7-16 peptide was added to PBMCs and responder as another […] (spike). The plate was incubated overnight at 37° C. and then developed/quantified according to manufacturer's instructions.

The test system of experiment [2] is K-Ras G12V responder T cells. The experiment can be described thus: IFN-γ ELISPOT: peptide-loaded HLA-A*11+ human PBMCs co-cultured with K-Ras G12V responder T cells. The format is cell-based. Particulars: for IFN-γ secretion by K-Ras-G12V responder T cells upon co-culture: Example 4, FIG. 4, HLA-A*11+ human PBMCs (donor 296) SQZ-loaded with 100 μM SLP; for IFN-γ expressing K-Ras-G12V responder T cells upon co-culture: Example 6, FIG. 6, HLA-A*11+ human PBMCs SQZ-loaded with 100 μM SLP, compared to vehicle control. Here is the method: as §1, with “donor (donor 296)” for “donor”, “10×10^6/mL, SQZ processed” for “10×10^6/mL, and SQZ-processed”, “K-Ras” for “K-Ras G12D”, “peptide (G12V^1-16, G12V^2-19)” for “peptide (either G12D^1-16, G12D^2-19, G12D^2-22, G12D^2-29)”, “SQZ-loaded PMBCs” for “SQZ-loaded PBMCs”
2×10^5 SQZ-loaded PBMCs were then placed in co-culture with 5×10^4 K-Ras G12V responder T cells (generated in transgenic mice) in an IFN-γ ELISPOT plate. As a positive control, 10 μM K-Ras G12V^7-16 peptide containing the minimal epitope was added directly to untreated PBMCs and responder cells in the ELISPOT plate (peptide spike). The plate was incubated overnight at 37° C. and then developed/quantified according to manufacturer's instructions.
as §1, with “10×10^6/mL, SQZ processed” for “10×10^6/mL, and SQZ-processed”, “constriction with” for “constriction of”, “K-Ras” for “K-Ras G12D”, “peptide (K-Ras G12V^3-17, K-Ras G12V^3-42)” for “peptide (either G12D^1-16, G12D^2-19, G12D^2-22, G12D^2-29)”, “medium. An irrelevant synthetic long peptide (HPV-E7.6) was used as a negative control.” for “medium.”, “SQZ-loaded PMBCs” for “SQZ-loaded PBMCs”
as §1, with “of 10× 10^6/mL, SQZ processed” for “of 10×10^6/mL, and SQZ-processed”, “K-Ras” for “K-Ras G12D”, “peptide (wild type K-Ras^1-16, G12V^1-16, wild type K-Ras^2-22, or G12V^2-22)” for “peptide (either G12D^1-16, G12D^2-19, G12D^2-22, G12D^2-29)”, “SQZ-loaded PMBCs” for “SQZ-loaded PBMCs”
Human PBMCs from HLA-A*11^+ donor were prepared at a density of 10×10^6/mL, SQZ processed at room temperature through a constriction of 4.5 μm width, 10 μm length and 70 μm depth at 60 psi with 100 μM of a single K-Ras synthetic long peptide (G12V^1-16 or G12V^2-19), or a combination of two K-Ras synthetic long peptides which are each at 100 μM (G12V^1-16 plus G12D^1-16 or G12V^2-19 plus G12D^1-16) or vehicle control (DMSO) in RPMI medium. Following SQZ-processing, the SQZ-loaded PMBCs were centrifuged, and the supernatant was discarded. The cells were subsequently washed once in R10 medium (RPMI+10% FCS+1% Pen/Strep), then washed twice in CTL medium (supplemented with 1% glutamine), before resuspension in fresh CTL medium (supplemented with 1% glutamine). […]

Experiment [3] relates to K-Ras G12V responder T cells. The experiment is described as above. Particulars: Example 8, FIG. 8; HLA-A*11+ human PBMCs SQZ-loaded with one SLP or a combination of two SLPs, each at 100 μM. The format is cell-based.
[4] abbreviates: HLA-A*11+ human PBMCs SQZ-loaded with 100 μM SLP.
The mark [5] stands for this setting: Example 2, FIG. 2, HLA-A*11+ human PBMCs SQZ-loaded with 100 μM SLP, compared to vehicle control.

“Also recorded” adds a separate entry of the source.

“TEYKLVVVGADGVGKSALTIQ [G12D^2-22, K-Ras G12D synthetic long peptide, residues 2-22]”: the “IFN-γ expressing by K-Ras-G12D responder T cells upon co-culture” value in experiment [1] (setting [4]) was “increased amount; also recorded: significant increases”. For the same substance, the “IFN-γ secretion by K-Ras-G12D responder T cells upon co-culture” value in experiment [1] (compared to vehicle control) was “significantly increased”; in experiment [1] (compared to vehicle control, listed as K-Ras-G12D^2-22), “increased amount”.

“TEYKLVVVGADGVGKSALTIQLIQNHFV [G12D^2-29, K-Ras G12D synthetic long peptide, residues 2-29]”: in experiment [1] (setting [4]), the “IFN-γ expressing by K-Ras-G12D responder T cells upon co-culture” value is recorded as “increased amount; also recorded: significant increases”. Besides, the “IFN-γ expressing K-Ras G12D responder T cells upon co-culture” value in experiment [1] (Example 10, FIG. 10, HLA-A*11+ human PBMCs SQZ-loaded with 100 μM SLP (SQZ-G12D), listed as K-Ras-G12D^2-29) is given as “significant increases; also recorded: increased amount”. In experiment [1] (Example 10), the “IFN-γ expressing responder T cells upon co-culture” value is “did not result in increase”.

On to “VVVGADGVGK [K-Ras G12D^7-16, positive control peptide spike, reference compound]”, for which the “IFN-γ expressing K-Ras G12D responder T cells upon co-culture” value in experiment [1] (Example 10, 10 μM peptide added directly to untreated PBMCs and responder cells (peptide spike, positive control)) was “significant increases”.

Turning to “MTEYKLVVVGAVGVGK [G12V^1-16, K-Ras G12V synthetic long peptide, residues 1-16]”, the “IFN-γ secretion by K-Ras-G12V responder T cells upon co-culture” value in experiment [2] is “significantly increased”; in experiment [2] (listed as K-Ras-G12V^1-16) it was “increased amount”. For the same substance, the figures for the “IFN-γ expressing K-Ras-G12V responder T cells upon co-culture” value in experiment [2], in experiment [2] (listed as K-Ras-G12V^1-16) and in experiment [3] were “significant increases”, “increased amount” and “significant increases”, respectively.

In the case of “TEYKLVVVGAVGVGKSAL [G12V^2-19, K-Ras G12V synthetic long peptide, residues 2-19]”, the “IFN-γ secretion by K-Ras-G12V responder T cells upon co-culture” value in experiment [2] was “significantly increased”; in experiment [2] (listed as K-Ras-G12V^2-19) it was “increased amount”. Moreover, in experiment [3], the “IFN-γ expressing K-Ras-G12V responder T cells upon co-culture” value was “significant increases”.

Regarding “wild type K-Ras^1-16: wild type K-Ras synthetic long peptide, residues 1-16; mutation-specificity comparator (MTEYKLVVVGAGGVGK; UniProt P01116 1-16, looked up, fragment) [reference compound]”, the “IFN-γ expressing K-Ras-G12D responder T cells upon co-culture” value in experiment [1] (setting [5]) was “did not elicit increases”. Besides, the “IFN-γ expressing K-Ras-G12V responder T cells upon co-culture” value in experiment [2] is listed as “did not elicit increases”.

“TEYKLVVVGADGVGKSAL [G12D^2-19, K-Ras G12D synthetic long peptide, residues 2-19]”: in experiment [1] (setting [4]), the “IFN-γ expressing by K-Ras-G12D responder T cells upon co-culture” value is “increased amount; also recorded: significant increases”.

Regarding “MTEYKLVVVGADGVGK [G12D^1-16, K-Ras G12D synthetic long peptide, residues 1-16]”, in experiment [1] (setting [4]), the “IFN-γ expressing by K-Ras-G12D responder T cells upon co-culture” value is listed as “increased amount; also recorded: significant increases”. The “IFN-γ expressing K-Ras-G12D responder T cells upon co-culture” value is listed as “significant increases” in experiment [1] (setting [5]); “increased amount” in experiment [1] (Example 2, FIG. 2, HLA-A*11+ human PBMCs SQZ-loaded with 100 μM SLP, compared to vehicle control, listed as K-Ras-G12D^1-16); “significant increases” in experiment [1] (Example 7, FIG. 7, HLA-A*11+ human PBMCs SQZ-loaded with one SLP or a combination of two SLPs, each at 100 μM). The “IFN-γ expressing K-Ras G12D responder T cells upon co-culture” value in experiment [1] (Example 10, FIG. 10, HLA-A*11+ human PBMCs SQZ-loaded with 100 μM SLP (SQZ-G12D), listed as K-Ras-G12D^1-16) was “significant increases; also recorded: increased amount”. Besides, the “IFN-γ expressing responder T cells upon co-culture” value in experiment [1] (Example 10) is “did not result in increase”.
